Reference: publication PMC9250238 (BMC Complementary Medicine and Therapies, 2022)
Read-outs that look alike come from different tables or passages of the source.

Experiments:
[1] = molecular target: T1, α-glucosidase (Saccharomyces cerevisiae) (Saccharomyces cerevisiae, UniProt P53341); test: biochemical
Protocol: (§3) α-Glucosidase inhibitor screening was conducted according to a previously reported procedure with slight modifications [20]. A measured amount of pNPG powder was dissolved at 2 mg/mL in 0.01 M phosphate buffer (pH = 6.8), and then 50 μL of the pNPG solution was mixed with an equal volume of isolated compounds from D. angustifolia Roxb, which were diluted to 4 mM. After being kept at 37 °C for 10 min, 25 μL of α-glucosidase (0.5 U/mL) was added. Following another 10 min incubation at 37 °C, the reaction was stopped with 125 μL of 0.2 M Na2CO3, and the absorbance at 410 nm of each sample (converted pNP) was measured via a microplate reader (BioTek ELX-800, USA).

[2] = molecular target: T1, α-glucosidase (Saccharomyces cerevisiae); test: Combined inhibition of acarbose and selected compounds against α-glucosidase (CompuSyn CI); assay type: biochemical; design: purchased Sigma–Aldrich; details: for Type of interaction with acarbose against α-glucosidase: CI >1.1 antagonistic, 0.9-1.1 additive, <0.9 synergistic; for CI values against α-glucosidase: combination with acarbose, over tested concentrations
Text: (§1) A combination index (CI) was employed to evaluate the impacts of binary inhibitors on α-glucosidase and α-amylase. […] When the CI values were above 1.1, between 0.9 and 1.1, and below 0.9, the effects were defined as antagonistic, additive, and synergistic.

[3] = molecular target: T2, α-amylase (porcine pancreas) (Sus scrofa, UniProt P00690); test: α-Amylase inhibition assay (starch-iodine); details: for IC50 against α-amylase (result in words): in the test concentration range
T2 sequence (P00690 16-511): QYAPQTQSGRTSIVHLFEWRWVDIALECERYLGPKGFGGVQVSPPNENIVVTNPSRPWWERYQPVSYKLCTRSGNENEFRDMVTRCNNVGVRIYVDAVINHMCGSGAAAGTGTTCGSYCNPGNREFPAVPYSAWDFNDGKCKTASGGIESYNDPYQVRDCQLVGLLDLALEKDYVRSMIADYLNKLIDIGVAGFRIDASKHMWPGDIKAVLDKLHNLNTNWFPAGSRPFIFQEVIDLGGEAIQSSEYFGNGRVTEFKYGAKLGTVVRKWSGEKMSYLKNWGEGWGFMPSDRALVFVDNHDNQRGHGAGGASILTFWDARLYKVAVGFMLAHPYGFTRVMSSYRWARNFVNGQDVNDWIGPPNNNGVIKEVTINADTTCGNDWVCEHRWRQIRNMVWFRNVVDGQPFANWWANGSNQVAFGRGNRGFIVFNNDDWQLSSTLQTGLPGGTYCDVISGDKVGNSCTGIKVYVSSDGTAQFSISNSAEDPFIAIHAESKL
Protocol: Changes in α-amylase activities were quantitatively analysed via a method based on starch-iodine colorimetric detection [21]. […] A mixture of 40 μL of starch solution and 40 μL of selected compounds was maintained at 37 °C for 10 min, and 80 μL α-amylase (5 U/mL) was added to start the reaction. After 30 min at 37 °C, terminations were achieved using 40 μL of 1 M HCl.

[4] = molecular target: T1, α-glucosidase (Saccharomyces cerevisiae); test: Kinetic test for α-glucosidase (Lineweaver–Burk)
Protocol: A measured amount of pNPG powder was dissolved at 2 mg/mL in 0.01 M phosphate buffer (pH = 6.8), and then 50 μL of the pNPG solution was mixed with an equal volume of isolated compounds from D. angustifolia Roxb, which were diluted to 4 mM. After being kept at 37 °C for 10 min, 25 μL of α-glucosidase (0.5 U/mL) was added. Following another 10 min incubation at 37 °C, the reaction was stopped with 125 μL of 0.2 M Na2CO3, and the absorbance at 410 nm of each sample (converted pNP) was measured via a microplate reader (BioTek ELX-800, USA). […] To acquire the inhibition type and related parameters of those inhibitors, kinetic assays were carried out, and the conditions of enzymatic reactions are detailed in the above section, in which the amount of enzymes was fixed. With an increasing amount of substrate, the amount of hydrolysed pNPG or starch in the presence of compounds (concentration gradient was established on the basis of their IC50 value) was quantified to create Lineweaver–Burk plots.

[5] = molecular target: T2, α-amylase (porcine pancreas); test: Kinetic test for α-amylase (Lineweaver–Burk); assay type: biochemical; design: purchased Sigma–Aldrich; host or cells: porcine pancreas; details: Lineweaver–Burk plots
Protocol: (§2) Changes in α-amylase activities were quantitatively analysed via a method based on starch-iodine colorimetric detection. […] A mixture of 40 μL of starch solution and 40 μL of selected compounds was maintained at 37 °C for 10 min, and 80 μL α-amylase (5 U/mL) was added to start the reaction. After 30 min at 37 °C, terminations were achieved using 40 μL of 1 M HCl.

[6] = molecular target: T2, α-amylase (porcine pancreas); test: Combined inhibition of acarbose and selected flavonoids against α-amylase (CompuSyn CI); assay type: biochemical; design: purchased Sigma–Aldrich; host or cells: porcine pancreas; details: CI >1.1 antagonistic, 0.9-1.1 additive, <0.9 synergistic
Protocol: as §2, §1

[7] = molecular target: T1, α-glucosidase (Saccharomyces cerevisiae); details: read-out: IC50 against α-glucosidase; in vitro, pNPG substrate, 37 °C, pH 6.8
Protocol: as §3

T1 sequence (P53341 whole entry): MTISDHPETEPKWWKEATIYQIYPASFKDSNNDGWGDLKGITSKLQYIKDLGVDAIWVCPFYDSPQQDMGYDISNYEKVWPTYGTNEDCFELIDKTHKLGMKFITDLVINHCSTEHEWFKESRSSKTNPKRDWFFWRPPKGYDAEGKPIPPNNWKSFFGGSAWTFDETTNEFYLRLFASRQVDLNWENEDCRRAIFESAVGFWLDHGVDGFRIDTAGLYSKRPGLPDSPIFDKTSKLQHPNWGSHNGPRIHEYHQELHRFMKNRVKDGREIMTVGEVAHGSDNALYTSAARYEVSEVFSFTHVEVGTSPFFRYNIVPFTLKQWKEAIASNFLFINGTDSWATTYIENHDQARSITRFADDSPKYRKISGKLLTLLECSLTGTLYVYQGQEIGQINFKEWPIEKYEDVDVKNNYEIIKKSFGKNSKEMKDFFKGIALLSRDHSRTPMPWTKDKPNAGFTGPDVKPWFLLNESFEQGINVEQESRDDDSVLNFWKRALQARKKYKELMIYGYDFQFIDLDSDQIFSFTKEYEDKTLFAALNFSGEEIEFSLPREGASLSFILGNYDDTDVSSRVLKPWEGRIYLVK

## CCO[C@@H](c1ccc(O)c(OC)c1)[C@H](O)CO [Compound 22, erythro-7R,8S-7-O-ethylguaiacyl glycerol]
[1]
  IC50: 40 ± 4 µM
[2]
  Type of interaction with acarbose against α-glucosidase: synergism
  CI values against α-glucosidase: below 0.9
[3]
  IC50 against α-amylase (result in words): did not yield 50% inhibition
[4]
  Ki: 7 ± 1.97 µM
[4]; Lineweaver–Burk plots
  Mode of inhibition (α-glucosidase): Mixed

## O=C(/C=C/c1ccc(O)cc1)NCCc1ccc(O)cc1 [Compound 18, trans-N-p-coumaroyltyramine]
[1]
  IC50: 1.99 ± 0.2 µM
[4]
  Ki: 21.1 ± 12.2 µM
[4]; Lineweaver–Burk plots
  Mode of inhibition (α-glucosidase): Uncompetitive

## Cc1c(O)cc2c(c1O)C(=O)C(Cc1ccc(O)cc1)CO2 (centres unmarked) [Compound 8, 5,7-dihydroxy-6-methyl-3-(4′-hydroxybenzyl) chroman-4-one]
[1]
  IC50: 520 ± 10 µM
[2]
  Type of interaction with acarbose against α-glucosidase: synergism
  CI values against α-glucosidase: below 0.9
[3]
  IC50: 5990 ± 60 µM
[4]
  Ki: 11.2 ± 0.99 µM
[4]; Lineweaver–Burk plots
  Mode of inhibition (α-glucosidase): Competitive
[5]
  Ki: 14100 ± 3530 µM
  Mode of inhibition (α-amylase): Mixed
[6]
  Type of interaction with acarbose against α-amylase: additive effects

## Cc1c(Cl)c(O)cc(O)c1Cl [Compound 24, 4,6-dichloro-5-methyl-benzene-1,3-diol]
[1]
  IC50: 780 ± 30 µM
[2]
  Type of interaction with acarbose against α-glucosidase: moderate additive effects
[3]
  IC50 against α-amylase (result in words): did not yield 50% inhibition
[4]
  Ki: 44 ± 0.88 µM
[4]; Lineweaver–Burk plots
  Mode of inhibition (α-glucosidase): Mixed

## (2S)-4′-hydroxy-5,7-dimethoxy-8-methylflavan [Compound 6]
[7]
  IC50: 370 ± 20 µM
[2]
  Type of interaction with acarbose against α-glucosidase: slight antagonism
[2]; highest concentration pair (about IC50), acarbose 5 mM, No.6/No.8 0.5 mM, No.9/No.24 1 mM, No.22 50 μM
  CI (combination index) against α-glucosidase: 1.12
[3]; read-out: IC50 against α-amylase, in vitro, starch-iodine method, 37 °C
  IC50: 6030 ± 270 µM
[4]; Lineweaver–Burk plots
  Mode of inhibition (α-glucosidase): Mixed
[4]; read-out: Ki (α-glucosidase), Lineweaver–Burk plots
  Ki: 57.8 ± 1.67 µM
[5]
  Ki: 27500 ± 3510 µM
  Mode of inhibition (α-amylase): Mixed
[6]
  Type of interaction with acarbose against α-amylase: additive effects

## O=c1c(Cc2ccc(O)cc2)coc2cc(O)cc(O)c12 [Compound 9, 5,7-dihydroxy-3-(4′-hydroxybenzyl) chromone]
[1]
  IC50: 650 ± 10 µM
[2]
  Type of interaction with acarbose against α-glucosidase: synergism
  CI values against α-glucosidase: below 0.9
[3]
  IC50: 2590 ± 50 µM
[4]
  Ki: 54.4 ± 15.8 µM
[4]; Lineweaver–Burk plots
  Mode of inhibition (α-glucosidase): Mixed
[5]
  Ki: 8590 ± 1940 µM
  Mode of inhibition (α-amylase): Mixed
[6]
  Type of interaction with acarbose against α-amylase: additive effects

## COc1cc(O)c2c(c1C)O[C@H](c1ccc(O)cc1)CC2 [Compound 5, (2S)-4′,5-Dihydroxy-7-methoxy-8-methylflavan]
[1]
  IC50: 240 ± 30 µM
[4]
  Ki: 39.9 ± 8.47 µM
[4]; Lineweaver–Burk plots
  Mode of inhibition (α-glucosidase): noncompetitive inhibitor
